According to ChEMBL document CHEMBL1201862, “PubChem BioAssay data set” (2004):
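Exposure lasted 48 hours, with cells grown in 96-well plates and compounds tested at five concentrations. Here, GI50 denotes the concentration required for 50% inhibition of growth.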 Activity calls are given as the source filed them. No stated cut-off is given here; in the data, active = GI50 up to about 1.1 µM and inactive = higher.

Columns and labels:
Experiment in all cases: NCI tumour cell line growth inhibition, 48 h
[1] = tested on: 786-0
[2] = tested on: ACHN
[3] = tested on: BT-549
[4] = tested on: CAKI-1
[5] = tested on: HOP-62
[6] = tested on: K562
[7] = tested on: KM12
[8] = tested on: MCF7
[9] = tested on: MDA-MB-435
[10] = tested on: NCI-H23
[11] = tested on: NCI/ADR-RES
[12] = tested on: OVCAR-4
[13] = tested on: PC-3
[14] = tested on: RXF 393
[15] = tested on: SF-268
[16] = tested on: SK-MEL-2
[17] = tested on: SK-MEL-5
[18] = tested on: SW-620
[19] = tested on: SR
[20] = tested on: HL-60

Measured: GI50

COC(=O)c1sc(=O)sc1SCc1cccc(CSc2sc(=O)sc2C(=O)OC)c1
inactive: [1] 17.6 µM | [2] 30 µM | [3] 36.4 µM | [4] 28.4 µM | [5] 16 µM | [6] 43.3 µM | [7] > 100 µM | [8] 9.33 µM | [9] 60.1 µM | [10] 52.6 µM | [11] 62.4 µM | [12] 15.9 µM | [13] 29.2 µM | [14] 26 µM | [15] 27.3 µM | [16] 47.9 µM | [17] > 100 µM | [18] > 100 µM

CC(C)=CC(=O)c1[nH]c2ccccc2c1CC(=O)NCCc1cncn1C
inactive: [1] 98.9 µM | [2] 66.4 µM | [3] 56.9 µM | [4] > 100 µM | [6] 30.5 µM | [7] 55.7 µM | [8] 42.4 µM | [9] 47 µM | [10] 51.1 µM | [11] > 100 µM | [12] > 100 µM | [13] 50.2 µM | [14] 29.6 µM | [15] 61.8 µM | [16] > 100 µM | [17] 94.8 µM | [19] 17.2 µM | [18] 85.7 µM

CS/C(=N\Nc1cnc2ccccc2n1)NS(=O)(=O)c1cc(C)c(Cl)cc1Cl
inactive: [1] > 100 µM | [2] > 100 µM | [3] > 100 µM | [4] 53.5 µM | [20] 88.7 µM | [5] > 100 µM | [6] > 100 µM | [7] > 100 µM | [8] 65.6 µM | [9] > 100 µM | [10] > 100 µM | [11] 84.7 µM | [12] > 100 µM | [13] > 100 µM | [14] > 100 µM | [15] > 100 µM | [17] > 100 µM | [18] > 100 µM

CCCCCCCCCCCCCCCCCCNC(=S)N/C=C1\C(=O)Nc2ccccc2C1=O
inactive: [1] 15.6 µM | [2] 16.4 µM | [3] 18.9 µM | [4] 16.9 µM | [20] 4.92 µM | [5] 15.6 µM | [7] 16.1 µM | [8] 20.2 µM | [9] 19.5 µM | [10] 18.9 µM | [11] 18.4 µM | [12] 20.6 µM | [14] 22.2 µM | [15] 13.6 µM | [16] 21.4 µM | [17] 24.2 µM | [18] 19.5 µM

O=C(O)c1cc(NC2=C(Cl)C(=O)c3c(O)ccc(O)c3C2=O)ccc1O
inactive: [1] > 10 µM | [2] > 10 µM | [3] > 10 µM | [4] > 10 µM | [5] > 10 µM | [6] > 10 µM | [7] > 10 µM | [8] > 10 µM | [9] > 10 µM | [10] > 10 µM | [11] > 10 µM | [12] > 10 µM | [13] > 10 µM | [15] > 10 µM | [17] > 10 µM | [18] > 10 µM

COc1cc(C(=O)N(C)N(C)C)cc(OC)c1OC
inactive: [1] > 10 µM | [2] > 10 µM | [3] > 10 µM | [4] > 10 µM | [20] > 10 µM | [5] > 10 µM | [6] > 10 µM | [7] > 10 µM | [8] > 10 µM | [9] > 10 µM | [10] > 10 µM | [11] > 10 µM | [12] > 10 µM | [13] > 10 µM | [14] > 10 µM | [15] > 10 µM | [16] > 10 µM | [17] > 10 µM | [18] > 10 µM

ClC1(Cl)C(c2ccccc2)C1c1ccccc1 (configuration not stated)
inactive: [1] 28.5 µM | [2] 25.6 µM | [3] 33.4 µM | [4] 30 µM | [5] 23.2 µM | [6] 9.68 µM | [7] 21.4 µM | [8] 56 µM | [9] 7.35 µM | [10] 24.6 µM | [11] 7.16 µM | [12] 44.6 µM | [13] 62.2 µM | [14] 14.4 µM | [15] 32.4 µM | [16] 13.8 µM | [19] 7.64 µM | [18] 22.2 µM

Cn1cc(NC(=O)c2cc(NC(=O)c3cc(NC=O)cn3C)cn2C)cc1C(=O)NCCC(=N)N [STALLIMYCIN]
inactive: [1] > 100 µM | [2] > 100 µM | [3] > 100 µM | [4] > 100 µM | [20] > 100 µM | [5] > 100 µM | [6] > 100 µM | [7] > 100 µM | [8] > 100 µM | [9] > 100 µM | [10] > 100 µM | [11] > 100 µM | [13] > 100 µM | [14] > 100 µM | [15] > 100 µM | [16] > 100 µM | [17] > 100 µM | [18] > 100 µM
